# Assay results reported in patent US6465494B1, “Methods for treatment of cystic fibrosis” (Cell Pathways, Inc., priority 2001, dated 2002).
# Where a name gives a salt, the structure may show the parent alone. Read-outs that look alike come from different tables or passages of the source.
# How the values were obtained:
# [1] = target: T1, GST-cGB-PDE5 fusion protein (Homo sapiens, UniProt O76074); assay: cGMP binding assay with GST-cGB-PDE5 fusion protein; details: 3H-cGMP 2 μM, 22° C., 1 hour
# T1 construct: made in house; host or cells: E. coli BL21 (DE3)
# From the text: RT-PCR method is used to obtain the cGB domain of PDE5 with forward and reverse primers designed from bovine PDE5A cDNA sequence (McAllister-Lucas L. M et al, J. Biol. Chem. 268, 22863-22873, 1993) and the selection among PDE 1-10 families. 5′-3′, Inc. kits for total RNA followed by oligo (dT) column purification of mRNA are used with HT-29 cells. […] It is then cloned into pGEX-5X-3 glutathione-S-transferase (GST) fusion vector (Pharmacia Biotech )with tac promoter, and EcoRI and XhoI cut sites. The fusion vector is then transfected into E. Coli BL21 (DE3) bacteria (Invitrogen). The transfected BL21 bacteria is grown to log phase, and then IPTG is added as an inducer. The induction is carried at 20° C. for 24 hrs. The bacteria are harvested and lysed. The soluble cell lysate is incubated with GSH conjugated Sepharose 4B (GSH-Sepharose 4B). The GST-cGB-PDE5 fusion protein can bind to the GSH-Sepharose beads, and the other proteins are washed off from beads with excessive cold PBS.
# Then, the mixture is transferred to Brandel MB-24 cell harvester with GF/B as the filter membrane followed by 2 washes with 10 mL of cold 5 mM potassium buffer(pH 6.8). The membranes are then cut out and transferred to scintillation vials followed by the addition of 1 mL of H2O and 6 mL of Ready Safe™ liquid scintillation cocktail to each vial. The vials are counted on a Beckman LS 6500 scintillation counter.
# The quenching by filter membrane or other debris are also calibrated.
# PDE4 = assay: PDE inhibition, similar protocols: PDE4; type: biochemical
# [2] = acute toxicity study in rats; details: rat, in vivo; for LD50: rats
# [3] = seven-day dose-range finding study in rats; type: in vivo; details: 7 days
# 28-day study in rats = type: in vivo
# Protocol: A 28-day study in rats was also carried out at 0, 50, 500 and 2000 mg/kg/day.
# [4] = 91-day long-term safety assessment study in rats; type: in vivo
# From the text: These changes were not associated with any gross clinical abnormality.
# [5] = 91-day oral study in dogs; type: in vivo
# [6] = single, escalating dose human clinical safety study; type: in vivo; details: oral, 50 mg BID, 100 mg BID, 200 mg BID and 400 mg BID
# [7] = tested on: TNF-α secreted by TPA-induced U937 cells; assay: TNF-α immunoassay on culture media of TPA-treated U937 cells; type: cell-based
# Protocol: One function of macrophages is to modulate the activity of other inflammatory cells through various cytokine molecules.
# TNF-αlevels in the cell culture media were determined by using the TNF-α Immunoassay from R&D Systems (Cat. # DTA50) according to the manufacturer's protocol.
# PDE5 = PDE5 (Homo sapiens, UniProt O76074); assay: cGMP PDE inhibition, 3H-cGMP hydrolysis: PDE5; type: biochemical; set-up: partially purified cGMP-specific PDE isolated from HT-29 cells; endogenous in cells; host or cells: HT-29
# Protocol: (Thompson, W. J., Teraski, W. L., Epstein, P. M., Strada, S. J., Advances in Cyclic Nucleotide Research, 10:69-92, 1979, which is incorporated herein by reference). […] The mixture is incubated at 30° C. for 10 minutes with isolated PDE2 and/or PDE5. Reactions are terminated, for example, by boiling the reaction mixture for 75 seconds. After cooling on ice, 100 μl of 0.5 mg/mL snake venom (O. Hannah venom available from Sigma) is added and incubated for 10 minutes at 30° C. This reaction is then terminated by the addition of an alcohol, e.g. 1 mL of 100% methanol. Assay samples are applied to 1 mL Dowex 1-X8 column; and washed with 1 mL of 100% methanol. The amount of radioactivity in the breakthrough and the wash from the column is combined and measured with a scintillation counter. The degree of phosphodiesterase inhibition is determined by calculating the amount of radioactivity in drug-treated reactions and comparing against a control sample (a reaction mixture lacking the tested compound but with drug solvent).
# Compounds of this invention are also PDE2 and PDE5 inhibitors as taught in part U.S. patent application Ser. No. 09/046,739 filed Mar. 24, 1998. […] The amount of radioactivity in the breakthrough and the wash from the columns in then measured with a scintillation counter. […]
# [8] = 28 days, 50, 500 and 2000 mg/kg/day
structure (smiles),measurement,setting,value
"CC1=C(CC(=O)NCc2ccccc2)c2cc(F)ccc2/C1=C\c1ccncc1 [Example 38, (Z)-5-fluoro-2-methyl-(4-pyridylidene)-3-(N-benzyl)indenylacetamide hydrochloride]",competition with cGMP in binding to the cGMP binding sites of GST-cGB-PDE5,[1],does not bind to the cGMP-binding site of PDE5
same,IC50,PDE4,6 µM
same,acute toxicity on a single-dose basis,[2],not acutely toxic
same,body weight gain,"[2]; ip, 1000 mg/kg",reduced body weight gain
same,necropsy finding,"[2]; ip, 1000 mg/kg",mesenteric adhesions seen in some animals
same,LD50,"[2]; ip, 1000 mg/kg, intraperitoneal, read-out: intraperitoneal LD50",> 1000 mg/kg
same,body weight gains,"[2]; po, 2000 mg/kg",slightly reduced
same,LD50,"[2]; oral, read-out: oral LD50",> 2000 mg/kg
same,observable signs of toxicity,[3]; 50 mg/kg/day,no observable signs of toxicity
same,treatment-related effects,[3]; 500 mg/kg/day,limited to an increase in absolute and relative liver weights in female rats
same,treatment-related effects,[3]; 2000 mg/kg/day,"labored breathing and/or abnormal respiratory sounds, decreased weights gains and food consumption in male rats, and increased liver weights in female rats"
same,"hematological, blood chemistry and microscopic pathology changes","[3]; any dose level (50, 500, 2000 mg/kg/day)",No hematological or blood chemistry changes nor any microscopic a pathology changes
same,macroscopic tissue changes at necropsy,28-day study in rats; 28 days,No macroscopic tissue changes
same,histopathological evaluation of tissues,"28-day study in rats; 28 days, 500 mg/kg/day",one female at 500 mg/kg/day had increased mitotic figures in the thyroid gland
same,liver weights,"28-day study in rats; 28 days, 2000 mg/kg/day",statistically significant increase in liver weights
same,thyroid weights,"28-day study in rats; 28 days, 2000 mg/kg/day",statistically significant increases in thyroid weights
same,"body weight changes, ophthalmoscopic examinations, hematological and blood chemistry values, urinalysis",28-day study in rats; [8],unremarkable
same,clinical observations,28-day study in rats; [8],no abnormal clinical observations
same,liver and thyroid weight increases at the lower doses,"28-day study in rats; 28 days, 50 and 500 mg/kg/day",not statistically significant
same,histopathological evaluation of tissues,"28-day study in rats; 28 days, small number of animals at 2000 mg/kg/day","traces of follicular cell hypertrophy, increased numbers of mitotic figures (suggestive of possible cell proliferation) in the thyroid gland and mild centrilobular hypertrophy in the liver"
same,clinical biochemistry and hematology,[4]; 91 days,no changes in clinical biochemistry and hematology were evident
same,"microscopic finding, follicular cells","[4]; 91 days, 500 mg/kg/day",follicular cell hypertrophy
same,"microscopic finding, kidneys","[4]; 91 days, 200 and 500 mg/kg/day",increase in accumulation of hyalin droplets in the kidneys
same,"microscopic finding, liver","[4]; 91 days, 200 and 500 mg/kg/day",slight hepatocellular hypertrophy
same,liver and thyroid/parathyroid weights,"[4]; 91 days, males and females at 200 and 500 mg/kg/day",dose-related trend to increased liver and thyroid/parathyroid weights
same,toxicological effects overall,"[4]; oral, 91 consecutive days, 50, 200 and 500 mg/kg/day",did not produce any major toxicological effects
same,tolerability,[5]; 91 days,well tolerated
same,feces observation,"[5]; 91 days, 150 and 300 mg/kg/day",Orange discoloration of the feces
same,body weights,"[5]; 91 days, highest dose group",Slightly lowered body weights
same,liver weights,"[5]; 91 days, highest dose group",increased liver weights
same,microscopic alterations of liver,"[5]; 91 days, highest dose group",no microscopic alterations
same,toxicological effects overall,"[5]; oral, 91 consecutive days, 50, 150 and 300 mg/kg/day",no toxicological effects
same,side effects,[6],no significant side effects at any dose
same,level of TNF-α secreted into cell culture media,[7],significantly reduced
same,IC50,PDE5,4 µM
